# Like-named read-outs stand apart in the source and are kept apart here.
# What was measured:
# [1] = tested on: isolated guinea pig trachea; test: Bronchospasmolytic effect in vitro, isolated guinea pig trachea (Example 7a); details: Table 1, six experiments
# Description: The trachea from a guinea pig was dissected out and spirally out. It was mounted in a water-jacketed bath (37°C.) in Kreb's solution and aerated with oxygen (95%) and carbon dioxide (5%). Pilocarpine (1 μg/ml) was added. The load was about 2 g and the relaxation was recorded by means of a Grass force displacement transducer and a Grass polygraph model 5. The compound KWD2109 was tested on six preparations in which epinephrine was used as reference.
# [2] = tested on: bronchospasm induced by histamine aerosol; test: Protecting effect against histamine aerosol in intact guinea pigs (Example 7c); type: in vivo, guinea pig; details: for ED50: Cavia porcellus, m ± s.e., read-out: ED50 (protecting 50 per cent of the animals for more than 4 minutes)
# Description: The compounds KWD2109 and KWD2025 have been compared in preventing bronchospasm induced by histamine aerosol in guinea pigs.
# The drug was injected intraperitoneally 15 minutes (Table 2) or administered orally 30 minutes (Table 3) before histamine treatment. The dose of the drugs protecting 50 per cent of the animals for more than 4 minutes is denoted "ED50". In untreated animals only 1-2 percent will withstand the histamine aerosol for more than 4 minutes.
# To study the duration of the effect, 2 mg/kg was administered orally to intact guinea pigs at different time intervals before the histamine treatment. Two series each including eleven groups of six animals was studied. The groups were tested in histamine aerosol 10, 20, 30, 40, 50, 60, 120, 180, 240, 300 and 360 minutes after the administration of the compound. The per cent of animals in each group protected more than 4 minutes and more than 10 minutes was determined.
# [3] = tested on: isolated guinea pig heart; test: Effect on isolated guinea pig heart, Langendorff (Example 7d)
# Description: The isolated guinea pig heart was perfused according to Langendorff. The method used is described by Anden et al. (Acta. Pharmacol. et Toxicol. 21, 247, 1964). Contractions in the heart were recorded by means of a force displacement transducer and aa Grass polygraph Model 7. Epinephrine was used as reference. KWD2109 and KWD2025 were tested on the same preparation. The comparisons of effects were based on dose for 50 percent increase in chronotropic effect and 10 percent increase in inotropic effect.
# [4] = tested on: isolated guinea pig auricle; test: Dual bath preparation, effect on left auricle (Example 8a)
# Description: The left auricle was dissected out and mounted together with spirally-cut trachea from the same animal in a 100 ml bath in Kreb's solution (37°C.) well aereated with a mixture of oxygen (95%) and carbon dioxide (5%). The auricle was electrically stimulated with square wave pulses from a Techtronic Stimulator (voltage 2-4; duration: 10 m sec; frequency 1 per second). This is, in general, the same procedure described above in Example 5c.
# Using the dual bath preparation, tests were made of the effect on the trachea and auricle of KWD2025 (of the present invention) and of the known drugs KWD2109 and epinephrine. The drug to be tested was added to the bath in the predetermined amount and allowed to act upon the organs for 10 minutes.
# heart rate = test: Tests on anesthetized cat, heart rate with bronchospasmolytic effect (Example 8b); type: in vivo
# Excerpt: The relative bronchospasmolytic and cardiovascular effects of compounds can be tested in the method of Konzett & Rossler (see Example 5b above). As has already been described, the test animal is force-ventilated and the effect of various compounds in controlling histamine-induced bronchoconstriction, as reflected by overflow of the forced ventilation in excess of lung capacity, is used as a measure of the bronchospasmolytic effect. Concurrently in the same animal, changes in heart rate and arterial mean pressure can be simultaneously recorded.
# In carrying out this procedure, bronchoconstriction in the test animal is induced by injection of histamine. The ability of KWD2025 and KWD2109 to control the histamine-inducred bronchoconstriction is measured by injecting the test compound 3 minutes before injection of […], and before injection of histamine, the effect of the test compound on the heart rate is recorded.
compound,measurement,setting,value
"Oc1ccc(C(O)CNC2CCC2)cc1O (stereo not drawn) [KWD2109, 1-(3',4'-dihydroxyphenyl)-2-(cyclobutylamino)-ethanol]",bronchospasmolytic effect x epinephrine,[1],8.6 ± 1.7 times
same,ED50,"[2]; ip, 0.25 h, i.p., 15 minutes before histamine-aerosol",0.17 ± 0.02 mg/kg
same,ED50,"[2]; po, 0.5 h, peroral, 30 minutes before histamine-aerosol",0.55 ± 0.14 mg/kg
same,protecting activity relative to KWD2025,[2]; intraperitoneal,3.5 times
same,protecting activity relative to KWD2025,[2]; oral,3.1 times
same,bronchospasmolytic activity relative to KWD2025 after intraperitoneal and oral administration,[2]; summary b256,about 3 times
same,"therapeutic index, bronchospasmolytic effect over effect on the heart (inotropic)",[3]; KWD2025 given index 1.0,0.083
same,effect on force x epinephrine,"[3]; dose for 10 percent increase in inotropic effect, Table 5",5.5 ± 3.2
same,effect on heart rate x epinephrine,"[3]; dose for 50 percent increase in chronotropic effect, Table 4",11.8 ± 6.5
same,effect on auricle relative to epinephrine at doses with same effect on trachea,[4]; equi-effective doses on trachea,of the same order as that of epinephrine
same,effect on force of contraction in auricle in concentrations relaxing the trachea,[4]; same bath,increased the force of contraction in the auricle in concentrations where it relaxed the trachea
same,effect on heart rate at equal bronchospasmolytically effective doses,heart rate,more pronounced effect on the heart rate than did KWD2025

# From patent US3937838A, “Orally active bronchospasmolytic compounds and their preparation” (priority 1966, dated 1976)
